Drawing on the METLIN SMRT retention time set (Domingo-Almenara et al. 2019), this text covers RP-LC retention time for 60 compounds.

The structures appear in SMILES notation.

This data set in a line: gradient 5% acetonitrile 3 min, to 50% in 2 min, to 85% in 15 min, held 3 min, 100 µL/min. The conditions noted are these: column: Zorbax Extend-C18 2.1 x 50 mm; eluents: water / acetonitrile, 0.1% formic acid. The method in brief:
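Retention time was recorded from adduct peaks, which were picked computationally and each inspected manually. Pure standards ran in mixtures of ~100 molecules on HPLC coupled to a quadrupole time-of-flight mass spectrometer, in positive and negative ionization mode, through a Zorbax Extend-C18 column (2.1 × 50 mm, 1.8 μm) at 100 μL/min. Eluents were water and acetonitrile, each with 0.1% formic acid.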
`O=C1NC(c2ccccc2)(C(F)(F)F)SC2=NCCCN12` (stereo not given) gave an RP-LC retention time of 584 s.

`CC(C)(C)C1CCc2[nH]nc(C(=O)N3CCc4nn(CC#N)c(=O)n4CC3)c2C1` (stereo not given) showed an RP-LC retention time of 760 s.

For the compound `O=C(NC1CCN(C(=O)C2CC2)C1)C1CCC1` (stereo not given), the RP-LC retention time came to 606 s.

As to `Cc1ccccc1Nc1c(-c2cccc(Br)c2)nc2ccc(Br)cn12`, the RP-LC retention time came to 1150 s.

As to `COCCNC(=O)C1(C)CCC(=O)N1CCc1c[nH]c2ccccc12` (stereo not given), the RP-LC retention time is 653 s.

In the case of `COc1ccc(C(=O)NCC(=O)Nc2nc3ccccc3[nH]2)c(C)c1`, the RP-LC retention time is 630 s.

Take `COc1ccc(C(=O)N2C[C@@H]3C[C@H]2C[C@@H]3NS(=O)(=O)c2ccccc2)cc1OC`: the RP-LC retention time stood at 723 s.

For the compound `Cc1nc(-c2ccncc2)nc2c1CCC(=O)N2C1CCCC1`, the RP-LC retention time was found to be 773 s.

Take `COc1ccc(-c2nnc(-c3cccc(S(=O)(=O)N4CCCCC4)c3)o2)cc1`: the RP-LC retention time amounted to 1060 s.

Compound `CCn1c(=O)sc2cc(S(=O)(=O)N3CCC(C(=O)Nc4ccc(Cl)cc4C)CC3)ccc21` displayed an RP-LC retention time of 980 s.

Turning to `Cc1noc([C@@H]2CC(F)(F)CN2C(=O)c2coc(C)n2)n1`, the RP-LC retention time is 694 s.

`CCN1CN=C(Nc2nc(C)c3cc(OC)ccc3n2)NC1` came in with an RP-LC retention time of 622 s.

As to `COCCCNC(=O)N1CCCC(C)(C(=O)NCc2ccc(C)cc2)C1` (stereo not given), the RP-LC retention time was determined as 720 s.

In turn, `Cc1ccc(S(=O)(=O)N2CCC(CC(=O)N3CCN(c4ccccn4)CC3)CC2)cc1` displayed an RP-LC retention time of 701 s.

`COc1ccc(NS(=O)(=O)c2c(C)c(-c3nnc(C4CCC4)o3)n(C)c2C)c(C)c1`: the RP-LC retention time turned out to be 929 s.

In turn, `CCc1ccc(CNC(=O)C2CCc3nc(N(CC)CC)ncc3C2)cc1` (stereo not given) displayed an RP-LC retention time of 786 s.

`O=C(c1ccc(Cl)cc1)N1CCc2sc(C(=O)N3CCCC3)cc2C1` came in with an RP-LC retention time of 792 s.

In turn, `Cc1cc(OCCCCOc2ccc(C#N)cc2)ccc1[N+](=O)[O-]` had an RP-LC retention time of 1250 s.

`CSc1cccc(NC(=O)Cn2cnc3nc4c(cc3c2=O)CCCC4)c1` had an RP-LC retention time of 755 s.

`CO[C@H]1C(=O)N(C(C)C)[C@H]1C1CCN(C(=O)Cn2ccnc2)CC1` displayed an RP-LC retention time of 562 s.

Compound `Brc1cccc(-c2nn3c(-c4ccccn4)nnc3s2)c1` had an RP-LC retention time of 860 s.

Turning to `COc1cccc(NC(=O)Cn2nc3c(Oc4ccccc4C)nccn3c2=O)c1`, the RP-LC retention time came out at 866 s.

`O=C(Nc1ccc(C(=O)O)c(O)c1)c1cc2ccccc2c(=O)o1` gave an RP-LC retention time of 770 s.

In turn, `CN1CCC(N2CCN(S(=O)(=O)c3cc(-c4nc(C(C)(C)C)cs4)cs3)CC2)CC1` returned an RP-LC retention time of 660 s.

`CCN1C(=O)c2ccccc2Sc2cc(-c3noc(CNC(=O)c4ccco4)n3)ccc21` gave an RP-LC retention time of 865 s.

Turning to `O=C(Nc1ccc2c(c1)OCCO2)c1cc2c(s1)CN(C1CCCC1)C2`, the RP-LC retention time was found to be 621 s.

The compound `CN1CCN(CCCNC(=O)C2c3ccccc3C(=O)N(C)C2c2cccs2)CC1` (stereo not given) displayed an RP-LC retention time of 573 s.

The compound `Cc1ccc(N2CC(c3nc(-c4ccccc4F)no3)CC2=O)cc1C` (stereo not given) registered an RP-LC retention time of 1020 s.

`CCc1onc(C)c1C1CCCN1C(=O)c1cc(-c2ccc3c(c2)OCO3)on1` (stereo not given) yielded an RP-LC retention time of 928 s.

In turn, `COc1ccc(C(C)NC(=O)c2c(C)sc3ccn(C)c(=O)c23)cc1` (stereo not given) gave an RP-LC retention time of 735 s.

`Cc1ccc(C(=O)Nc2ccccc2[N+](=O)[O-])cc1` showed an RP-LC retention time of 967 s.

Consider `CC1CCN(C(=O)c2nc(CCS(=O)(=O)c3ccc(Cl)cc3)no2)CC1`, for which the RP-LC retention time was 974 s.

Regarding `CC(=O)OCC(=O)[C@@]12N=C(C)O[C@@H]1C[C@H]1[C@@H]3CCC4=CC(=O)C=C[C@]4(C)[C@H]3[C@@H](O)C[C@@]12C`, the RP-LC retention time was 862 s.

`CC(=O)Nc1cccc(-c2nc(-c3ccc4c(c3)oc(=O)n4C)no2)c1C` had an RP-LC retention time of 750 s.

`CC(=O)Nc1ccc(SCCCC(=O)Nc2nc3ccccc3s2)nn1` showed an RP-LC retention time of 691 s.

Turning to `NS(=O)(=O)c1cccnc1Nc1ccc2c(c1)OCCO2`, the RP-LC retention time came out at 735 s.

On to `Cc1ccc(NC(=O)N2CCC(n3cnnc3C3CC3)C2)cc1C` (stereo not given), for which the RP-LC retention time amounted to 665 s.

The compound `Cc1ccccc1NC(=O)C1CCN(S(=O)(=O)c2c(C)[nH]c(C)c2C(=O)N2CCCC2)CC1` yielded an RP-LC retention time of 675 s.

With `CC12CC(NC(=O)N1c1cccc(C(=O)O)c1)c1ccccc1O2` (stereo not given), the RP-LC retention time came out at 683 s.

As to `Cc1ccc2ncn(C3CCN(S(=O)(=O)c4cc(C)c(C)cc4C)CC3)c(=O)c2c1`, the RP-LC retention time is 1050 s.

As for `COc1ccc(C)cc1NC(=O)C1N(C(C)C)C(=O)C12CCCC2` (stereo not given), the RP-LC retention time came to 844 s.

As for `Cc1ccc(NC(=O)C2CCCN2S(=O)(=O)c2cc3c(cc2Cl)NC(=O)CO3)cc1F` (stereo not given), the RP-LC retention time worked out at 844 s.

`CCOC(=O)c1c(S(=O)(=O)N2CCC(C(=O)Nc3cc(C)cc(C)c3)CC2)c(C)n(C)c1C` gave an RP-LC retention time of 942 s.

`CCn1cnc(S(=O)(=O)N2CCCC(C(=O)Nc3ccc(C)c(C)c3)C2)c1` (stereo not given) showed an RP-LC retention time of 800 s.

As to `COc1ccc(CC(=O)N2CCc3cc(-c4ccno4)ccc32)cc1Cl`, the RP-LC retention time came out at 1000 s.

Take `Cc1ccc(Sc2nccnc2N2CCC(C(=O)N3CCN(c4ccc(C)cc4)CC3)CC2)cc1`: the RP-LC retention time amounted to 1290 s.

Compound `COc1ccc(OC)c(NC(=O)Cn2c(=O)nc(N3CCC(C)CC3)c3ccccc32)c1` displayed an RP-LC retention time of 859 s.

Compound `COc1ccc(Nc2nc(N3CCN(C)CC3)nc3c2C(=O)CCC3)cc1` displayed an RP-LC retention time of 645 s.

As to `CCc1cc(=O)n(CC(=O)Nc2cc(C)cc(C)c2)c(N2CCOCC2)n1`, the RP-LC retention time was 802 s.

In turn, `CCNc1ccccc1C(=O)O` had an RP-LC retention time of 782 s.

Compound `CC(=O)c1ccc(Nc2c(C(=O)N3CCOCC3)cnc3nc(C)ccc23)cc1` returned an RP-LC retention time of 568 s.

`C[C@@H](NC(=O)c1cccc(F)c1)C(=O)NCc1cscn1`: the RP-LC retention time worked out at 636 s.

`CCCN(C(=O)c1ccccc1)c1nc(-c2ccccc2)cs1` showed an RP-LC retention time of 1310 s.

Compound `COc1cccc(-c2nnc(Cc3nc(-c4cccc(C)c4)no3)o2)c1` showed an RP-LC retention time of 1050 s.

In turn, `CC(NC(=O)c1ccc2ncnc(N3CCCCC3)c2c1)c1cccnc1` (stereo not given) registered an RP-LC retention time of 545 s.

As for `COC(=O)c1cccc(C(=O)Nc2ccc(C)cc2Cl)n1`, the RP-LC retention time stood at 1100 s.

The compound `Cc1ccc(S(=O)(=O)[C@H]2CS(=O)(=O)C[C@@H]2N2CCN(c3ccc(F)cc3)CC2)cc1` came in with an RP-LC retention time of 962 s.

The compound `COc1ccc(CC(=O)NCC2(c3cccs3)CC2)cc1OC` gave an RP-LC retention time of 736 s.

For the compound `CC(C)NC(=O)c1ccc(OCC2CCN(C(=O)c3ccccc3C(F)(F)F)CC2)cc1`, the RP-LC retention time is 899 s.

`Cc1nc(C)c(C(=O)Nc2ccc(F)c(C)c2)s1` came in with an RP-LC retention time of 810 s.
